Data published in patent US20050020672A1, “Methods of extending mammalian life span via iron chelating compounds that reduce free radical damage in mammals” (priority 1994, published 2005).

Tests used:
[1] = FDO stability under the diet making conditions; type: physicochemical; settings: mixed with ground Purina Mouse Chow, 70° C. for 3 hours under vacuum; ethanol extract, HPLC and UV absorption
Method: (§1) Three key parameters were measured prior to starting the study: (a) FDO stability under the diet making conditions (70° C. for 3 hours under vacuum), (b) FDO stability to stomach pH (approximately pH 1), and (c) FDO absorbed intact into the blood stream of the mouse. The following were the outcomes: • (a) The FDO was mixed with ground Purina Mouse Chow® and heated to 70° C. for 3 hours under vacuum; the FDO was then extracted from the chow with ethanol and assayed by HPLC and by UV absorption spectrum. […]

[2] = FDO stability to stomach pH; type: physicochemical; settings: 2:1:1 ethanol:propylene glycol:water at pH 1 (HCl); HPLC and UV absorption
Method: as §1

[3] = FDO absorbed intact into the blood stream of the mouse; type: in vivo; settings: Skh mice fed chow containing 0.01% 14C-FDO for 14 days; blood analyzed by HPLC
Method: as §1

[4] = FDO content of FDO-containing diets during storage over the study; type: physicochemical; settings: diets stored at 4° C., sampled at 3 month intervals over approximately two years; UV absorption
Method: (§2) The FDO-containing and control diets were prepared by Teklad (Madison, Wis.) by addition of FDO to standard Purina Mouse Chow®. Diets were stored at 4° C. in sealed containers until used. The levels of FDO in the diets were 0%, 0.01%, and 0.1%.
At 3 month intervals throughout the study, samples of the FDO-containing Purina Mouse Chow® were ground and extracted with ethanol; the ethanol was then analyzed for FDO content by UV absorption (obtaining the absorption spectrum versus the FDO standard and then determining level of FDO at the peak absorption).

[5] = tested on: female albino Skh:HR-1 hairless mice; test: Effect of dietary FDO on mouse average life span (survival); type: in vivo; settings: for Mean survival: control 553 days
Method: Forty eight (48) female albino Skh:HR-1 hairless mice were obtained from Charles River Laboratories (Portage, Mich.). At the start of the study, the mice were approximately 20 weeks old. The mice were housed four to a standard plastic cage and given feed and water ad libitum. Sixteen (16) mice were placed on each of the three test diets described below.
The 2-Furildioxime (FDO) was obtained from Aldrich Chemical Co. (Milwaukee, Wis.).
as §2
Throughout the study, mouse weights, food consumption, and date of death were recorded.

[6] = 0.01% and 0.1% FDO diets vs. 0% control diet

ON=C(C(=NO)c1ccco1)c1ccco1 [FDO, 2-furildioxime]
loss of FDO under diet making conditions [1]: no detectable loss
loss of FDO at stomach pH [2]: no detectable loss
FDO in blood after dietary administration [3]: Intact FDO was detected
loss of FDO from the diets [4]: no detectable loss
% Increase in Survival Time ([5]; 0.01% FDO diet vs. control diet, p = 0.05): 14%
Mean survival ([5]; 0.01% FDO diet, p = 0.05 vs. control): 632 days
mouse body weights [5, 6]: not different
mouse food consumption [5, 6]: not different
% Increase in Survival Time ([5]; 0.1% FDO diet vs. control diet, p = 0.02): 20%
Mean survival ([5]; 0.1% FDO diet, p = 0.02 vs. control): 664 days
death from all causes ([5]; FDO-fed mice): delayed to a later date
differences in the causes of death among the diet groups ([5]; autopsy, 0.01% and 0.1% FDO diets vs. control): not any differences
life span relative to the control diet ([5]; both FDO diets (0.01% and 0.1%), statistical analysis): significantly increased
appearance or behavioral differences ([5]; daily observation, 0.01% and 0.1% FDO diets vs. control): No differences
